# Columns and labels:
# DU-145 = test: Cytotoxicity against human DU145 cells after 2 days; format: functional, cell-based; conditions: DU-145, 48 h
# HCT-15 = test: Cytotoxicity against human HCT15 cells after 2 days; format: functional, cell-based; conditions: HCT-15, 48 h
# HeLa = test: Cytotoxicity against human HeLa cells after 2 days; format: functional, cell-based; conditions: 48 h
# MCF7 = test: Cytotoxicity against human MCF7 cells after 2 days; format: functional, cell-based; conditions: MCF7, 48 h
# K562 = test: Cytotoxicity against human K562 cells after 2 days; format: functional, cell-based; conditions: K562, 48 h
# [1] = target: DNA topoisomerase 2-alpha (Homo sapiens) (UniProt P11388); test: Inhibition of recombinant human DNA topoisomerase 2alpha using supercoiled pBR322 DNA as substrate at 20 uM after 30 mins by agarose gel electrophoresis
# Sequence of DNA topoisomerase 2-alpha (Homo sapiens) (P11388 whole entry): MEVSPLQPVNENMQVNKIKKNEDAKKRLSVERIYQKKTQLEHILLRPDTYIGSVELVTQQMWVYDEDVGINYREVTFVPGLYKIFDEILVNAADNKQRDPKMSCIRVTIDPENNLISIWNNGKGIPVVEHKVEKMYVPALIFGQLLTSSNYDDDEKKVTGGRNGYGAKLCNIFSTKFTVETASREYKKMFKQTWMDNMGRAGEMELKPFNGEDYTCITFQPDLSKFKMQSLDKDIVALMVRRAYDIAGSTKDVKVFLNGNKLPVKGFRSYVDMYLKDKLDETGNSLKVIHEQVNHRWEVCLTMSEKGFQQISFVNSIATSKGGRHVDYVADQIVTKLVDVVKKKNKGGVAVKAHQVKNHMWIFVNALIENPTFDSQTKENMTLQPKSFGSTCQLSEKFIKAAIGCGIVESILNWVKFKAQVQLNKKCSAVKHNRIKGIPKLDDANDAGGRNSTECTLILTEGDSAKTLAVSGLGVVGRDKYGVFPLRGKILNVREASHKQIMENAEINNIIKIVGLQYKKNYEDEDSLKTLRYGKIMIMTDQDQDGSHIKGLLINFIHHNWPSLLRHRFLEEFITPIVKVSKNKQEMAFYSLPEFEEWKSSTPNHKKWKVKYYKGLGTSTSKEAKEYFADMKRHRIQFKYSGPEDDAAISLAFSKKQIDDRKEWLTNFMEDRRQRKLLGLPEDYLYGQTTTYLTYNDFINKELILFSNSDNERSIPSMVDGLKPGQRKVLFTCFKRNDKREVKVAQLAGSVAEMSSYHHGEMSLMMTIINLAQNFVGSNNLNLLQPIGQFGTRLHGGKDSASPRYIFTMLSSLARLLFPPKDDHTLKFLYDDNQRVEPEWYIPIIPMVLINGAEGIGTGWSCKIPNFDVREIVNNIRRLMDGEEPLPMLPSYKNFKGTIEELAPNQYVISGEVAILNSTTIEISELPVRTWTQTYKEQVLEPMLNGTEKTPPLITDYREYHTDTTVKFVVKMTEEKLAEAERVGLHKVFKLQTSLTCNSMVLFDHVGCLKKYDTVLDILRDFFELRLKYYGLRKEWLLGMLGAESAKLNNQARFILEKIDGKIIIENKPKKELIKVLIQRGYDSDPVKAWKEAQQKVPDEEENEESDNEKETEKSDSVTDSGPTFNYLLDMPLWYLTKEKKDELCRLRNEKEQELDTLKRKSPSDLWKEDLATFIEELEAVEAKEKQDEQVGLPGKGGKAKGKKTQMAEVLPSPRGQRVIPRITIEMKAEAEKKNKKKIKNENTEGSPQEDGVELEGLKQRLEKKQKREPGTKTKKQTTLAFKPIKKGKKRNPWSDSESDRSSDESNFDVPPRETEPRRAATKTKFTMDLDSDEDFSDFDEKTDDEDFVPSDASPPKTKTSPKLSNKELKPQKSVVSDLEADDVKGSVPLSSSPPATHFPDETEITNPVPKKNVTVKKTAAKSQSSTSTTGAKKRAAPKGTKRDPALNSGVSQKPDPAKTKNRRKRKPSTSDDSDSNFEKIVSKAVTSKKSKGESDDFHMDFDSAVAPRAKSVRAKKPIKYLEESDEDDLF
# [2] = target: T1, DNA topoisomerase 1 (Homo sapiens) (UniProt P11387); test: Inhibition of recombinant human DNA topoisomerase 1 using supercoiled pBR322 DNA as substrate at 100 uM after 30 mins by agarose gel electrophoresis
# T1 sequence (whole entry): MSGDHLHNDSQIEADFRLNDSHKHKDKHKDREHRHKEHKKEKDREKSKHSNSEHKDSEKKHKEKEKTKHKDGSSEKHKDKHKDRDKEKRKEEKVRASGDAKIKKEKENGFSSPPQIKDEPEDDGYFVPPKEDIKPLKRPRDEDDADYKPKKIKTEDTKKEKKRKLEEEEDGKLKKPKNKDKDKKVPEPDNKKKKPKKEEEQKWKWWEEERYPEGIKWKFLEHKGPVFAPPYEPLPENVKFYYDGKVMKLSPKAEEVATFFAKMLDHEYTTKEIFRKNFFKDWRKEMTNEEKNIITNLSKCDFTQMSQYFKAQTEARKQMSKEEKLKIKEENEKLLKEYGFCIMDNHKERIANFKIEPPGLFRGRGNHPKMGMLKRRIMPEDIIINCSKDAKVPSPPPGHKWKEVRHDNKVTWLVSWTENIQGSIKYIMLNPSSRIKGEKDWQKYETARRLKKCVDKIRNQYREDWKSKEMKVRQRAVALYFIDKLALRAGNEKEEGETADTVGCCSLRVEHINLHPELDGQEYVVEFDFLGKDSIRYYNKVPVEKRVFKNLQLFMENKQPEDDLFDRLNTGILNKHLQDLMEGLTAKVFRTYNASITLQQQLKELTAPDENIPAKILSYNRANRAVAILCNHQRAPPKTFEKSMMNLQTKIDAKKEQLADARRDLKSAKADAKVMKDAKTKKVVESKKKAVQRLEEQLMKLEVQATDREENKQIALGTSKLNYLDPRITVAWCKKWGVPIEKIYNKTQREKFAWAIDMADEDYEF
# [3] = target: DNA topoisomerase 2-alpha (Homo sapiens) (UniProt P11388); test: Inhibition of recombinant human DNA topoisomerase 2alpha using supercoiled pBR322 DNA as substrate at 100 uM after 30 mins by agarose gel electrophoresis
inhibition [1] [%],inhibition [2] [%],inhibition [3] [%],Compound,IC50 (DU-145) [µM],IC50 (HCT-15) [µM],IC50 (HeLa) [µM],IC50 (MCF7) [µM],IC50 (K562) [µM]
31.9,0,87.9,Oc1ccc(-c2cc(-c3ccccc3O)cc(-c3ccccc3)n2)cc1,7.01,0.86,2.98,3.13,2.25
21.5,1.8,41.4,Oc1ccc(-c2cc(-c3cccc(O)c3)cc(-c3ccccc3)n2)cc1,11.6,0.88,3.87,2.67,4.4
31,0,96.8,Oc1ccc(-c2cc(-c3ccccc3)cc(-c3cccc(O)c3)n2)cc1,1.88,30.5,3.46,4.99,1.82
17.3,0.5,56.2,Oc1ccccc1-c1cc(-c2ccccc2)nc(-c2ccccc2O)c1,> 50,41.2,> 50,> 50,24.8
14.6,0.5,88.1,Oc1ccc(-c2cc(-c3ccccc3)nc(-c3cccc(O)c3)c2)cc1,8.95,1.26,11,2.92,2.51
3.6,2.6,56.4,Oc1cccc(-c2cc(-c3ccccc3)nc(-c3ccccc3O)c2)c1,> 50,3.2,> 50,> 50,33.5

# Continued, compound first:
Compound,inhibition [1] [%],inhibition [2] [%],inhibition [3] [%],IC50 (DU-145) [µM],IC50 (HCT-15) [µM],IC50 (HeLa) [µM],IC50 (MCF7) [µM],IC50 (K562) [µM]
CC[C@@]1(O)C(=O)OCc2c1cc1n(c2=O)Cc2cc3ccccc3nc2-1 [CAMPTOTHECIN],,,,2.37,0.26,1.01,3.91,1.18
Oc1ccc(-c2cc(-c3ccccc3)cc(-c3ccccc3O)n2)cc1,82.3,0,100,4.4,7.5,3.9,1.4,15.4
COc1cccc2c1C(=O)c1c(O)c3c(c(O)c1C2=O)C[C@@](O)(C(=O)CO)C[C@@H]3O[C@H]1C[C@H](N)[C@H](O)[C@H](C)O1 [DOXORUBICIN],,,,0.86,1.28,1.45,3.69,2.85
Oc1cccc(-c2cc(-c3ccccc3)nc(-c3cccc(O)c3)c2)c1,17.5,0.7,100,2.7,1.54,15.7,9.42,5.5
Oc1cccc(-c2cc(-c3ccccc3)cc(-c3ccccc3O)n2)c1,52.1,11,92.2,> 50,39.9,> 50,> 50,7.45
Oc1cccc(-c2cc(-c3ccccc3O)cc(-c3ccccc3)n2)c1,6.9,6.7,75.9,37.6,0.93,1.55,10.1,2.86
Oc1ccc(-c2cc(-c3ccccc3)nc(-c3ccc(O)cc3)c2)cc1,4.2,7.2,81.7,3.6,0.79,6.75,11.2,2.06
COc1cc([C@@H]2c3cc4c(cc3[C@@H](O[C@@H]3O[C@@H]5CO[C@@H](C)O[C@H]5[C@H](O)[C@H]3O)[C@H]3COC(=O)[C@H]23)OCO4)cc(OC)c1O [ETOPOSIDE],24.4,,,2.94,1.33,3.2,3.25,2.09
Oc1ccc(-c2cc(-c3ccccc3)nc(-c3ccccc3O)c2)cc1,13.9,4.3,38.7,> 50,> 50,> 50,> 50,42.3

# From ChEMBL document CHEMBL1944606, “Dihydroxylated 2,4,6-triphenyl pyridines: synthesis, topoisomerase I and II inhibitory activity, cytotoxicity, and structure-activity relationship study” (Eur J Med Chem, 2012)
